Patent US9745320B2, “Five-and-six-membered heterocyclic compound, and preparation method, pharmaceutical composition and use thereof” (SHANGHAI CHEMEXPLORER CO., LTD., priority 2013, dated 2017)
pIC50: −log10 of the molar value. Read-outs that look alike come from different tables or passages of the source.

How the values were obtained:
Format in all cases: biochemical
JAK3 = molecular target: T1, JAK3 (Homo sapiens, UniProt P52333); test: JAK 3 enzymatic inhibitory activity IC50 assay (Caliper conversion rate)
T1 sequence (P52333 1-1124): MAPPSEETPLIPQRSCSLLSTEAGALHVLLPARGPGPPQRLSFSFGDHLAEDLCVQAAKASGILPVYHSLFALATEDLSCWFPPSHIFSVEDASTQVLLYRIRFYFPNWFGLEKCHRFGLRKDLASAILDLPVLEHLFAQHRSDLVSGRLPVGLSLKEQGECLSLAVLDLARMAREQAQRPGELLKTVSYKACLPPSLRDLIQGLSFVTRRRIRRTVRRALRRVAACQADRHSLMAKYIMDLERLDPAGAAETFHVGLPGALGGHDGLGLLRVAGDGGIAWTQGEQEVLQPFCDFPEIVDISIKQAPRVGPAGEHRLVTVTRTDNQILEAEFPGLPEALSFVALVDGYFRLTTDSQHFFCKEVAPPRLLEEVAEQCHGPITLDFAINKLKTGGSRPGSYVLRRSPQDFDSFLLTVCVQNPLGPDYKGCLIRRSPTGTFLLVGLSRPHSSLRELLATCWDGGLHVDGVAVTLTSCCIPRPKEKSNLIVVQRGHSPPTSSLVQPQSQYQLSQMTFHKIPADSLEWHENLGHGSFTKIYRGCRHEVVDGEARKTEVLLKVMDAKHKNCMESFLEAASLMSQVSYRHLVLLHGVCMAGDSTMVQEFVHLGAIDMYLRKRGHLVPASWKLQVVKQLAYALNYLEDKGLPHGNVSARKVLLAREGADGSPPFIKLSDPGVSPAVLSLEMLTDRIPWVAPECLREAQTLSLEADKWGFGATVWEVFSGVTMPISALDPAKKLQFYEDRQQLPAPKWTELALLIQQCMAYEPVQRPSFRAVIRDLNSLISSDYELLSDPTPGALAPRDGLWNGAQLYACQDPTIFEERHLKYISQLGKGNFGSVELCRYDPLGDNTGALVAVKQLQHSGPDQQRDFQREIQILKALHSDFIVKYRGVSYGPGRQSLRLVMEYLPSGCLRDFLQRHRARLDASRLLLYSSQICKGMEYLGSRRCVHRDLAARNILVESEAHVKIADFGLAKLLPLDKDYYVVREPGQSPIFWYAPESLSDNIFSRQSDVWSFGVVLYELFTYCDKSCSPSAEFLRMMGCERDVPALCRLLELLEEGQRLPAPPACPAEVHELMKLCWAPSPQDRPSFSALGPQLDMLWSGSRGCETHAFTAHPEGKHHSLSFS

JAK1 = JAK1 (Homo sapiens, UniProt P23458); test: JAK 1 enzymatic inhibitory activity IC50 assay (Caliper conversion rate); conditions: Km ATP, 28° C., 1 hour
Sequence of JAK1 (P23458 whole entry, species assumed): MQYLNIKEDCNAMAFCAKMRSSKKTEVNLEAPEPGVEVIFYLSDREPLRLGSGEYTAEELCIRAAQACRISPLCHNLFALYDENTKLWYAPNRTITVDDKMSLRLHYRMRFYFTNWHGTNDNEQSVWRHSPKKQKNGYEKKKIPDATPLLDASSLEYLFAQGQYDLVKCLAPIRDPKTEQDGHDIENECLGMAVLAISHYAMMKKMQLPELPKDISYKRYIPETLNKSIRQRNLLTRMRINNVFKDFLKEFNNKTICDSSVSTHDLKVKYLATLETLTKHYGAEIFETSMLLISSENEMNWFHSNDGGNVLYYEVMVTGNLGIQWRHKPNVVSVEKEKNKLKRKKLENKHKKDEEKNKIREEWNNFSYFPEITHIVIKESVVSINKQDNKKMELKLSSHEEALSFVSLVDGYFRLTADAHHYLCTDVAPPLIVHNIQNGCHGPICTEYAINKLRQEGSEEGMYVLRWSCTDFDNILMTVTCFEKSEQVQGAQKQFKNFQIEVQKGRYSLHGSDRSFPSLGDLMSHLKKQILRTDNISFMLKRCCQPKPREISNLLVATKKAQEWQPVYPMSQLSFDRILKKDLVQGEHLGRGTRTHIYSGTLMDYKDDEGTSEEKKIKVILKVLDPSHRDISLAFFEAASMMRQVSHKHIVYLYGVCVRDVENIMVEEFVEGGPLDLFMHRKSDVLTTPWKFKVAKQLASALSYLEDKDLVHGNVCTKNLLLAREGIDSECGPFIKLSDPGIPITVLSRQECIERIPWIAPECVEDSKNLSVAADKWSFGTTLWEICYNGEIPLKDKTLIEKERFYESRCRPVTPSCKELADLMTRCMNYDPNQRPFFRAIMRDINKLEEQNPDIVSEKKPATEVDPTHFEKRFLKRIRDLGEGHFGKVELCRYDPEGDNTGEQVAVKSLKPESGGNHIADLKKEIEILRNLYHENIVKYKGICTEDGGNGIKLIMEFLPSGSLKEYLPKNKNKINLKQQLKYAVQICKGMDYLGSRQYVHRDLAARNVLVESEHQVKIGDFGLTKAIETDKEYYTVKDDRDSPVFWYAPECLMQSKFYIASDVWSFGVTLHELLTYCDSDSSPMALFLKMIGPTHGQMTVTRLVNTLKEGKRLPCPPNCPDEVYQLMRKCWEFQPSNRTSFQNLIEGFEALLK
Method in brief: (§1)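 Human JAK1 or JAK2 enzyme was preincubated with graded compound (2% DMSO) in HEPES pH 7.5/Brij-35/DTT buffer (JAK1 also with Triton), then peptide substrate, 10 mM MgCl2 and ATP at Km were added. Reactions ran 1 hour at 28° C; Caliper conversion rate gave inhibition, averaged over two tests, for IC50.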

JAK2 = JAK2 (Homo sapiens, UniProt O60674); test: JAK 2 enzymatic inhibitory activity IC50 assay (Caliper conversion rate); conditions: Km ATP, 28° C., 1 hour
Sequence of JAK2 (O60674 whole entry, species assumed): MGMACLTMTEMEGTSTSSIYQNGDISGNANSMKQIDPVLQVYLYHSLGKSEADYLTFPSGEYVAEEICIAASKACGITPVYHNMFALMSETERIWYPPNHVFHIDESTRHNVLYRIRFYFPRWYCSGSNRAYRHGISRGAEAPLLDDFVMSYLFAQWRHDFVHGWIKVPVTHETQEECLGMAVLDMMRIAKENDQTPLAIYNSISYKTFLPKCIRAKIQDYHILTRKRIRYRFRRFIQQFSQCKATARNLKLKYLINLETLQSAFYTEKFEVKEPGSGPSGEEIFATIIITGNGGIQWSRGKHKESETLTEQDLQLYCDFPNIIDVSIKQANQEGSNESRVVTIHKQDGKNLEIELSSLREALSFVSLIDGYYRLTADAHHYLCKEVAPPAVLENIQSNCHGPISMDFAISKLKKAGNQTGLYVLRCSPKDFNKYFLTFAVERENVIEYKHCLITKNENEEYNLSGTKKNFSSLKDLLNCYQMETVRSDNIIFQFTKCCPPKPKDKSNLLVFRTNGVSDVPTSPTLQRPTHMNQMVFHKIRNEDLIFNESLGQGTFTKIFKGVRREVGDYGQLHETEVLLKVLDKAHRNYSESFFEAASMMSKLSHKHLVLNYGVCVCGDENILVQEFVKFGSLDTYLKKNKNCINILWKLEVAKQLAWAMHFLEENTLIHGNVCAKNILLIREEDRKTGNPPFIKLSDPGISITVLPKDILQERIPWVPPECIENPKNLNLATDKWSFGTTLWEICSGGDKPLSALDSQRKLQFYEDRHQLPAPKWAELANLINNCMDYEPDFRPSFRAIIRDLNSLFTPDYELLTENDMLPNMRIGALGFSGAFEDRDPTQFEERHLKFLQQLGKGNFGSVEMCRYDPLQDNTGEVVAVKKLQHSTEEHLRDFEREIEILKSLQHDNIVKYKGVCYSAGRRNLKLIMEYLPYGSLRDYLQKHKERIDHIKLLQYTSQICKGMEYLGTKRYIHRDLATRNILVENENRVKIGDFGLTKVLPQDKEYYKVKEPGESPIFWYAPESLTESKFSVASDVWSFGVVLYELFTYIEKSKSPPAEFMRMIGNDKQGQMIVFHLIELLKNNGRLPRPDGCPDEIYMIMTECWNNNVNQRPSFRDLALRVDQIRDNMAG
Method in brief: as §1

[1] = Km ATP, 28° C., 1 hour, read-out: JAK 3 enzymatic inhibitory activity IC50

pIC50 (JAK3; [1])	pIC50 (JAK1)	pIC50 (JAK2)	pIC50 (JAK3)	Structure (SMILES)
> 7.30	> 7.30	> 7.30		CCS(=O)(=O)N1CC(CC#N)(n2cc(-c3nc(Nc4cnn(CCO)c4)nc4ccsc34)cn2)C1 [Compound T-51, 2-(1-(Ethylsulfonyl)-3-(4-(2-((1-(2-hydroxyethyl)-1H-pyrazol-4-yl)amino)thieno[3,2-d]pyrimidin-4-yl)-1H-pyrazol-1-yl)azetidin-3-yl)acetonitrile]
> 7.30	> 7.30	> 7.30		C[C@H](O)Cn1cc(Nc2nc(-c3cnn(C4(CC#N)CN(S(C)(=O)=O)C4)c3)c3sccc3n2)cn1 [Compound T-87, (S)-2-(3-(4-(2-((1-(2-Hydroxypropyl)-1H-pyrazol-4-yl)amino)thieno[3,2-d]pyrimidin-4-yl)-1H-pyrazol-1-yl)-1-(methylsulfonyl)azetidin-3-yl)acetonitrile]
6.30 to 7.30	6.30 to 7.30	> 7.30		C[C@H](CO)n1cc(Nc2nc(-c3cnn(C4(CC#N)COC4)c3)c3sccc3n2)cn1 [Compound T-82, (R)-2-(3-(4-(2-((1-(1-Hydroxypropan-2-yl)-1H-pyrazol-4-yl)amino)thieno[3,2-d]pyrimidin-4-yl)-1H-pyrazol-1-yl)oxetan-3-yl)acetonitrile]
6.30 to 7.30	6.30 to 7.30	> 7.30		CCCCOC(=O)CCn1cc(Nc2nc(-c3cnn(C4(CC#N)CN(S(=O)(=O)CC)C4)c3)c3sccc3n2)cn1 [Compound T-34, Butyl 3-(4-((4-(1-(3-(cyanomethyl)-1-(ethylsulfonyl)azetidin-3-yl)-1H-pyrazol-4-yl)thieno[3,2-d]pyrimidin-2-yl)amino)-1H-pyrazol-1-yl)propanoate]
> 7.30	> 7.30	> 7.30		CCS(=O)(=O)N1CC(CC#N)(n2cc(-c3nc(Nc4cnn(CCC#N)c4)nc4ccsc34)cn2)C1 [Compound T-71, 3-(4-((4-(1-(3-(Cyanomethyl)-1-(ethylsulfonyl)azetidin-3-yl)-1H-pyrazol-4-yl)thieno[3,2-d]pyrimidin-2-yl)amino)-1H-pyrazol-1-yl)propanenitrile]
6.00 to 6.30	6.30 to 7.30	> 7.30		CCS(=O)(=O)N1CC(CC#N)(n2cc(-c3nc(Nc4ccc(S(C)(=O)=O)cc4)nc4sccc34)cn2)C1 [Compound T-18, 2-(1-(Ethylsulfonyl)-3-(4-(2-((4-(methylsulfonyl)phenyl)amino)thieno[2,3-d]pyrimidin-4-yl)-1H-pyrazol-1-yl)azetidin-3-yl)acetonitrile]
< 6.00	< 6.00	< 6.00		N#CCNC(=O)c1ccc(-c2nc(Nc3ccccc3)nc3ccsc23)cc1 [Compound T-16, N-(Cyanomethyl)-4-(2-(phenylamino)thieno[3,2-d]pyrimidin-4-yl)benzamide]
6.30 to 7.30	6.30 to 7.30	> 7.30		Cn1cc(Nc2nc(-c3cnn(C4(CC#N)COC4)c3)c3sccc3n2)cn1 [Compound T-43, 2-(3-(4-(2-((1-Methyl-1H-pyrazol-4-yl)amino)thieno[3,2-d]pyrimidin-4-yl)-1H-pyrazol-1-yl)oxetan-3-yl)acetonitrile]
6.30 to 7.30	> 7.30	> 7.30		CCS(=O)(=O)N1CC(CC#N)(n2cc(-c3nc(Nc4cnn(CCC(=O)O)c4)nc4ccsc34)cn2)C1 [Compound T-35, 3-(4-((4-(1-(3-(Cyanomethyl)-1-(ethylsulfonyl)azetidin-3-yl)-1H-pyrazol-4-yl)thieno[3,2-d]pyrimidin-2-yl)amino)-1H-pyrazol-1-yl)propanoic acid]
6.30 to 7.30	6.30 to 7.30	> 7.30		Cn1cc(Nc2nc(-c3cnn(C4(CC#N)CC(F)C4)c3)c3sccc3n2)cn1 (stereo not drawn) [Compound T-77, 2-(3-Fluoro-1-(4-(2-((1-methyl-1H-pyrazol-4-yl)amino)thieno[3,2-d]pyrimidin-4-yl)-1H-pyrazol-1-yl)cyclobutyl)acetonitrile]
6.00 to 6.30	6.00 to 6.30	6.30 to 7.30		CCS(=O)(=O)N1CC(CC#N)(n2cc(-c3nc(Nc4cccc(N5CCOCC5)c4)nc4ccsc34)cn2)C1 [Compound T-13, 2-(1-(Ethylsulfonyl)-3-(4-(2-((3-morpholinophenyl)amino)thieno[3,2-d]pyrimidin-4-yl)-1H-pyrazol-1-yl)azetidin-3-yl)acetonitrile]
< 6.00	6.00 to 6.30	6.30 to 7.30		Cn1cc(Nc2nc(-c3cnn(C4(CC#N)COC4)c3)c3ccsc3n2)cn1 [Compound T-42, 2-(3-(4-(2-((1-Methyl-1H-pyrazol-4-yl)amino)thieno[2,3-d]pyrimidin-4-yl)-1H-pyrazol-1-yl)oxetan-3-yl)acetonitrile]
6.30 to 7.30	> 7.30	> 7.30		CCS(=O)(=O)N1CC(CC#N)(n2cc(-c3nc(Nc4cccnc4)nc4ccsc34)cn2)C1 [Compound T-26, 2-(1-(Ethylsulfonyl)-3-(4-(2-(pyridin-3-ylamino)thieno[3,2-d]pyrimidin-4-yl)-1-pyrazol-1-yl)azetidin-3-yl)acetonitrile]
6.30 to 7.30	> 7.30	> 7.30		CCS(=O)(=O)N1CC(CC#N)(n2cc(-c3nc(Nc4cn[nH]c4)nc4ccsc34)cn2)C1 [Compound T-31, 2-(3-(4-(2-((1H-Pyrazol-4-yl)amino)thieno[3,2-d]pyrimidin-4-yl)-1H-pyrazol-1-yl)-1-(ethylsulfonyl)azetidin-3-yl)acetonitrile]
6.30 to 7.30	6.30 to 7.30	> 7.30		CCS(=O)(=O)N1CC(CC#N)(n2cc(-c3nc(Nc4ccc(OCCN5CCCC5)cc4)nc4ccsc34)cn2)C1 [Compound T-09, 2-(1-(Ethylsulfonyl)-3-(4-(2-((4-(2-(pyrrolidin-1-yl)ethoxy)phenyl)amino)thieno[3,2-d]pyrimidin-4-yl)-1H-pyrazol-1-yl)azetidin-3-yl)acetonitrile]
> 7.30	> 7.30	> 7.30		CCS(=O)(=O)N1CC(CC#N)(n2cc(-c3nc(Nc4cnn(C5CN(CC6CC6)C5)c4)nc4ccsc34)cn2)C1 [Compound T-66, 2-(3-(4-(2-((1-(1-(Cyclopropylmethyl)azetidin-3-yl)-1H-pyrazol-4-yl)amino)thieno[3,2-d]pyrimidin-4-yl)-1H-pyrazol-1-yl)-1-(ethylsulfonyl)azetidin-3-yl)acetonitrile]
6.30 to 7.30	6.30 to 7.30	> 7.30		CCS(=O)(=O)N1CC(CC#N)(n2cc(-c3nc(Nc4ccc(N5CCOCC5)nc4)nc4ccsc34)cn2)C1 [Compound T-62, 2-(1-(Ethylsulfonyl)-3-(4-(2-((6-morpholinopyridin-3-yl)amino)thieno[3,2-d]pyrimidin-4-yl)-1H-pyrazol-1-yl)azetidin-3-yl)acetonitrile]
	< 6.00	< 6.00	< 6.00	CCS(=O)(=O)N1CC(CC#N)(n2cc(-c3cc(Nc4ccccc4)nc4ccnn34)cn2)C1 [Compound T-55, 2-(1-(Ethylsulfonyl)-3-(4-(5-(phenylamino)pyrazolo[1,5-a]pyrimidin-7-yl)-1H-pyrazol-1-yl)azetidin-3-yl)acetonitrile]
< 6.00	< 6.00	< 6.00		N#Cc1ccc(-c2nc(Nc3ccccc3)nc3ccsc23)cc1F [Compound T-56, 2-Fluoro-4-(2-(phenylamino)thieno[3,2-d]pyrimidin-4-yl)benzonitrile]
6.30 to 7.30	6.30 to 7.30	> 7.30		CS(=O)(=O)CCCn1cc(Nc2nc(-c3cnn(C4(CC#N)CCC4)c3)c3sccc3n2)cn1 [Compound T-73, 2-(1-(4-(2-((1-(3-(Methylsulfonyl)propyl)-1H-pyrazol-4-yl)amino)thieno[3,2-d]pyrimidin-4-yl)-1H-pyrazol-1-yl)cyclobutyl)acetonitrile]
> 7.30	> 7.30	> 7.30		Cn1cc(Nc2nc(-c3cnn(C4(CC#N)CN(S(C)(=O)=O)C4)c3)c3sccc3n2)cn1 [Compound T-74, 2-(3-(4-(2-((1-Methyl-1H-pyrazol-4-yl)amino)thieno[3,2-d]pyrimidin-4-yl)-1H-pyrazol-1-yl)-1-(methylsulfonyl)azetidin-3-yl)acetonitrile]
